Source: patent publication US20260234165A1, “MACROCYCLIC COMPOUNDS, PREPARATION METHOD THEREFOR, AND USE THEREOF” (GENFLEET THERAPEUTICS (SHANGHAI) INC., priority 2004, published 2026)

Assay: Pharmacokinetic study in rats
Format: in vivo, Sprague-Dawley (SD) rats
Conditions: Sprague-Dawley, rat, plasma, male SD rats
Source text: A total of 6 healthy adult male Sprague-Dawley (SD) rats were provided by Zhejiang Vital River Laboratory Animal Technology Co., Ltd. For each test compound, 6 healthy adult male SD rats were selected and randomly divided into 2 groups: an intravenous administration (IV) group and an intragastric administration (PO) group. The LC-MS/MS method was used to determine the drug concentrations in the plasma of rats at different time points after intravenous and intragastric administration of the test compounds. This experiment was intended to investigate the pharmacokinetic performance of the test compounds in rats and to evaluate the pharmacokinetic characteristics. Each drug used in the experiment was prepared from the test compound powder: An appropriate amount of test compound powder was weighed out, and appropriate amounts of DMSO, a 10% aqueous Solutol HS 15 solution, and a 6% aqueous HP-β-CD solution were sequentially added according to a volume ratio of 5:10:85. The mixture was vortexed and sonicated until clarification. The final concentration of the drug in the IV group was 0.5 mg/mL, and the final concentration of the drug in the PO group was 1 mg/mL; the concentrations could be adjusted according to actual needs. For the drug in the PO group of Z504, an appropriate amount of test compound powder was weighed out, and an appropriate amount of 0.5% MC+0.2% Tween 80 aqueous solution was added. The mixture was well mixed by vortexing to give a 1 mg/mL homogeneous suspension: the concentration could be adjusted according to actual needs.
All experimental rats were fasted overnight, and food intake was resumed 4 h after administration. For the rats in the IV group, the administration volume was set at 2 mL/kg, with Z554 and Z915 administered at a dose of 0.5 mg/kg and the other compounds at a dose of 1 mg/kg. For the rats in the PO group, the administration volume was 10 mL/kg and the dose was 10 mg/kg. The administration amount was adjusted according to the body weight of the rats on the day of administration. In the experiment, blood samples were collected from the rats in the IV group at multiple time points (0.0833 h, 0.25 h, 0.5 h, 1 h, 2 h, 4 h, 7 h, and 24 h) after administration, while blood samples were collected from the PO group at 0.25 h, 0.5 h, 1 h, 2 h, 4 h, 7 h, and 24 h after administration, with approximately 100 μL collected each time via the orbital blood collection method.
The blood samples were placed in centrifuge tubes containing EDTA-K2 and centrifuged at 8000 rpm for 4 min within 30 min to separate the supernatant plasma. The resulting plasma samples were stored at −20° C. for later use. For sample analysis, 20 μL of each of plasma samples and calibration standards was added to a 96-well plate, and 160 μL of acetonitrile containing 100 ng/mL tolbutamide was added. The samples were vortexed for 5 min for uniform mixing, and then centrifuged at 4000 rpm for 15 min. After the centrifugation was completed, 50 μL of supernatant was added to a 96-well plate containing 150 μL of deionized water. The plate was then sealed and shaken for uniform mixing. Sample analysis was performed by LC-MS/MS.
The sampling volume could be adjusted according to actual needs, but the final concentration should be kept unchanged.

clearance (IV, dose 1 mg/kg): 1.83 mL/min/kg
AUC (PO (intragastric), dose 10 mg/kg, read-out: AUC): 8400 ng·h/mL
Cmax (PO (intragastric), dose 10 mg/kg, read-out: Cmax): 1110 ng/mL
SMILES: CCn1c(-c2cc(C#CCN3CCCOCC3)cnc2[C@H](C)OC)c2c3cc(ccc31)-c1csc(n1)C[C@H](NC(=O)CC(C)C)C(=O)N1CCC[C@H](N1)C(=O)OCC(C)(C)C2 (single isomer, unassigned) [Compound Z803]
